Publication PMC10145973, “Genomic Insights into Bacterial Resistance to Proline-Rich Antimicrobial Peptide Bac7” (Membranes, 2023)
In brackets after ≈: the same amount, converted by molar mass. Several values for one entry are separate records, joined by “and”; a condition that tells them apart may be missing. Equal values may be shown once. Read-outs that look alike come from different tables or passages of the source. Marks after values point to notes of the source that are not given here. Where a SMILES comes first, the peptide text is derived from it. Bridges are numbered along the chain shown (N, C = ends). [ ]: non-standard residue; d: D form. The star is where a group is joined. X1 = CC[C@H](C)CCCCC(=O)*; Dab = NCC[C@H](N)C(=O)O

What was measured:
[1] = tested on: septic shock-modelled rats; parameters: method as in PMID 12785015; details: comparable with polymyxin B; cited from earlier work
[2] = tested on: extensively drug-resistant Klebsiella pneumoniae isolate; parameters: method as in PMID 30445429; details: serially passaged in the presence of the agent; cited from earlier work
E. coli MDR 1057 B2 = details: 24 h, 37 °C; for Minimum Inhibitory Concentration, B2: Table 2, broth microdilution in MHB (medium ±0.9% NaCl not given), 0.1% BSA, median of at least three independent experiments in triplicate
E. coli MDR 1057 P1 = details: Table 2, broth microdilution in MHB (medium ±0.9% NaCl not given), 0.1% BSA, 24 h, 37 °C, median of at least three independent experiments in triplicate
E. coli MDR 1057 WT = details: 24 h, 37 °C; for Minimum Inhibitory Concentration, WT: Table 2, broth microdilution in MHB (medium ±0.9% NaCl not given), 10^6 CFU/mL suspension, agents diluted in 0.1% BSA, visible turbidity, median of at least three independent experiments in triplicate
E. coli MDR 1057 B3 = details: 24 h, 37 °C; for Minimum Inhibitory Concentration, B3: Table 2, broth microdilution in MHB (medium ±0.9% NaCl not given), 0.1% BSA, median of at least three independent experiments in triplicate
[3] = tested on: resistant Salmonella enterica strain (pmrB mutations); details: listed as PmxB; cited from earlier work
M. tuberculosis H37Rv = details: cited from earlier work
[4] = tested on: E. coli BW25113 ΔsbmA (sbmA::kan, JW0368); experiment: MIC, broth microdilution, sbmA knockout; assay type: cell-based, Escherichia coli; details: Fig. 3C, 24 h, 37 °C
[5] = tested on: E. coli BW25113 ΔwaaP (waaP::kan, JW3605); experiment: MIC, broth microdilution, waaP knockout; assay type: cell-based, Escherichia coli; details: 24 h, 37 °C
[6] = tested on: E. coli BW25113 ΔwaaP (pBAD-WaaP^N159H); details: complementation in BW25113 ΔwaaP, 0.1 g/L arabinose
E. coli MDR 1057 B1 = details: Fig. 3C, 24 h, 37 °C
E. coli BW25113 WT = experiment: MIC, broth microdilution, BW25113; assay type: cell-based, Escherichia coli; details: 24 h, 37 °C
[7] = tested on: Mycobacterium smegmatis mc(2)155; experiment: MIC against Mycobacterium smegmatis (unpublished data); assay type: cell-based; details: authors' unpublished data
Mycobacterium phlei = tested on: Mycobacterium phlei; parameters: method as in PMID 35629841; details: cited from earlier work
[8] = selection in MHB without 0.9% NaCl
[9] = Fig. 3C and text, MHB +0.9% NaCl

In the case of “Bac7_1-35: Bac7 fragment 1-35 (RRIRPRPPRLPRPRPRPLPFPRPGPRPIPRPLPFP; Bactenecin-7; UniProt P19661 131-165, looked up, fragment)”, the “plasma LPS levels and lethality rates” value [1] is listed as “significant decrease”.
For `CC[C@H](C)CCCCC(=O)N[C@@H](CCN)C(=O)N[C@H](C(=O)N[C@@H](CCN)C(=O)N[C@H]1CCNC(=O)[C@H]([C@@H](C)O)NC(=O)[C@H](CCN)NC(=O)[C@H](CCN)NC(=O)[C@H](CC(C)C)NC(=O)[C@@H](Cc2ccccc2)NC(=O)[C@H](CCN)NC1=O)[C@@H](C)O` [Polymyxin B] (X1-[Dab]T[Dab][Dab][Dab][dF]L[Dab][Dab]T; lactam 4-C (inferred); N-terminus assumed), the “increase in MIC after serial passage” value [2] is listed as ≥ 1000 fold, the “final MIC relative to initial MIC, the P2 strain” value (E. coli MDR 1057 strain; PmxB selection) is listed as 32 × MIC and the “final MIC relative to initial MIC, the P1 strain” value (E. coli MDR 1057 strain; PmxB selection, MHB + 0.9% NaCl, 25 passages) is listed as 2048 × MIC. For the same compound, the “final MIC value, the P1 strain” value (E. coli MDR 1057 strain; PmxB selection, MHB + 0.9% NaCl, 25 passages, then three passages on drug-free agar) was 128 µM, the “final MIC value, the P2 strain” value (E. coli MDR 1057 strain; PmxB selection, after final passage and three passages on drug-free agar) was 2 µM and the “MIC at start of the selection experiment” value (E. coli MDR 1057 strain; both repetitions (P1 and P2), before selection) was 0.0625 µM. The “Minimum Inhibitory Concentration, B2” value (E. coli MDR 1057 B2) was 0.125 µM, the “Minimum Inhibitory Concentration, P1” value (E. coli MDR 1057 P1; listed as PmxB) was > 128 µM and the “Minimum Inhibitory Concentration, WT” value (E. coli MDR 1057 WT) was 0.125 µM. For the same compound, the “Minimum Inhibitory Concentration, B3” value (E. coli MDR 1057 B3) was 8 µM and the “MIC after a single pmrB mutation” value [3] was “up to 3 µg/mL and ≤ 4 µM”.
In the case of PR-39, the concentration inhibiting growth (M. tuberculosis H37Rv) is listed as “about 10 µM”.
For `CC[C@H](C)[C@H](NC(=O)[C@H](CCCNC(=N)N)NC(=O)[C@@H](N)CCCNC(=N)N)C(=O)N[C@@H](CCCNC(=N)N)C(=O)N1CCC[C@H]1C(=O)N[C@@H](CCCNC(=N)N)C(=O)N1CCC[C@H]1C(=O)N1CCC[C@H]1C(=O)N[C@@H](CCCNC(=N)N)C(=O)N[C@@H](CC(C)C)C(=O)N1CCC[C@H]1C(=O)N[C@@H](CCCNC(=N)N)C(=O)N1CCC[C@H]1C(=O)N[C@@H](CCCNC(=N)N)C(=O)N1CCC[C@H]1C(=O)N[C@@H](CCCNC(=N)N)C(=O)N1CCC[C@H]1C(=O)N[C@@H](CC(C)C)C(=O)N1CCC[C@H]1C(=O)N[C@@H](Cc1ccccc1)C(=O)N1CCC[C@H]1C(=O)N[C@@H](CCCNC(=N)N)C(=O)O` [Bac7_1-22] (H-RRIRPRPPRLPRPRPRPLPFPR-OH), the “increases in MIC values after initial 3-4 passages” value (E. coli MDR 1057 strain; selection in MHB + 0.9% NaCl, strains B1 and B2) was ≥ 32 fold, the “increase in MICs after 4 weeks of selection, strain B3” value (E. coli MDR 1057 strain; [8]) was 32 fold and the “increase in MICs after 4 weeks of selection, strain B4” value (E. coli MDR 1057 strain; [8]) was 4 fold. For the same compound, the “increase in minimal inhibitory concentrations (MICs), three resistant strains” value (E. coli MDR 1057 strain; serial passaging, four-week experimental evolution (abstract)) was ≥ 16 fold, the “MIC, MHB +0.9% NaCl” value (E. coli MDR 1057 B2; Fig. 3C, MDR 1057 B2, MHB +0.9% NaCl) was 32 µM (≈ 89.1 µg/mL) and the “MIC, MHB” value (E. coli MDR 1057 B2; Fig. 3C, MDR 1057 B2, salt-free MHB) was 1 µM. The “Minimum Inhibitory Concentration, B2” value (E. coli MDR 1057 B2) was >32 µM, the “MIC, MHB +0.9% NaCl” value ([4]; MHB +0.9% NaCl) was 16 µM (≈ 44.6 µg/mL) and the “MIC, MHB” value ([4]; salt-free MHB) was 1 µM. The “MIC, MHB +0.9% NaCl” value [5, 9] was 1 µM (≈ 2.78 µg/mL), the “MIC, MHB” value ([5]; Fig. 3C, salt-free MHB) was 2 µM and the “Minimum Inhibitory Concentration, P1” value (E. coli MDR 1057 P1) was 16 * µM. The “MIC, MHB +0.9% NaCl” value (E. coli MDR 1057 WT; Fig. 3C, MDR 1057 WT, MHB +0.9% NaCl, median of ≥3 experiments) was 2 µM (≈ 5.57 µg/mL), the “MIC, MHB” value (E. coli MDR 1057 WT; Fig. 3C, MDR 1057 WT, salt-free MHB, median of ≥3 experiments) was 1−2 μM and the “MIC, MHB +0.9% NaCl” value (E. coli MDR 1057 B3; Fig. 3C and text, MDR 1057 B3, MHB +0.9% NaCl) was 32−64 μM. The “MIC, MHB” value (E. coli MDR 1057 B3; Fig. 3C and text, MDR 1057 B3, salt-free MHB) was 32 µM, the “Minimum Inhibitory Concentration, B3” value (E. coli MDR 1057 B3) was >32 µM and the “increase in MICs for the strain expressing waaP^N159H as compared with the wild-type variant” value [6] was 4–8 fold. The “MIC, MHB +0.9% NaCl” value (E. coli MDR 1057 B1; MHB +0.9% NaCl) was 32 µM (≈ 89.1 µg/mL), the “MIC, MHB” value (E. coli MDR 1057 B1; salt-free MHB) was 1 µM and the “MIC, MHB +0.9% NaCl” value (E. coli BW25113 WT; [9]) was 1 µM (≈ 2.78 µg/mL). The “MIC, MHB” value (E. coli BW25113 WT; Fig. 3C, salt-free MHB) was 2 µM.
For `CC[C@H](C)[C@H](NC(=O)[C@H](CCCNC(=N)N)NC(=O)[C@@H](N)CCCNC(=N)N)C(=O)N[C@@H](CCCNC(=N)N)C(=O)N[C@@H](CCCNC(=N)N)C(=O)N1CCC[C@H]1C(=O)N[C@@H](CCCNC(=N)N)C(=O)N[C@@H](CC(C)C)C(=O)N1CCC[C@H]1C(=O)N[C@@H](CCCNC(=N)N)C(=O)N1CCC[C@H]1C(=O)N[C@@H](CCCNC(=N)N)C(=O)N[C@H](C(=O)N1CCC[C@H]1C(=O)N[C@@H](CCCNC(=N)N)C(=O)N1CCC[C@H]1C(=O)N[C@@H](CCCNC(=N)N)C(=O)N[C@H](C(=O)N1CCC[C@H]1C(=O)N1CCC[C@H]1C(=O)N[C@@H](CCCNC(=N)N)C(=O)N[C@H](C(=O)N1CCC[C@H]1C(=O)N[C@@H](CCCNC(=N)N)C(=O)N1CCC[C@H]1C(=O)N[C@H](C(=O)N[C@@H](CC(C)C)C(=O)N1CCC[C@H]1C(=O)N1CCC[C@H]1C(=O)N1CCC[C@H]1C(=O)N[C@@H](CCCNC(=N)N)C(=O)N[C@H](C(=O)N1CCC[C@H]1C(=O)N[C@@H](Cc1ccccc1)C(=O)N1CCC[C@H]1C(=O)N[C@@H](CCCNC(=N)N)C(=O)N[C@@H](Cc1ccccc1)C(=O)N1CCC[C@H]1C(=O)N[C@@H](CCCNC(=N)N)C(N)=O)C(C)C)C(C)C)[C@@H](C)CC)[C@@H](C)CC)C(C)C` [VicBac] (H-RRIRRPRLPRPRVPRPRIPPRIPRPVLPPPRVPFPRFPR-NH2; N-terminus assumed), the “Minimum Inhibitory Concentration, B2” value (E. coli MDR 1057 B2) was 2 µM, the “Minimum Inhibitory Concentration, P1” value (E. coli MDR 1057 P1) was 4 µM and the “Minimum Inhibitory Concentration, WT” value (E. coli MDR 1057 WT) was 1 µM. For the same compound, the MIC [7] was 0.5 to 1 µM, the “Minimum Inhibitory Concentration, B3” value (E. coli MDR 1057 B3) was 2 µM and the MIC (Mycobacterium phlei) was 0.5 to 1 µM.
